Reference: patent US9212163B2, “Pesticidal compositions and processes related thereto” (Dow AgroSciences LLC, priority 2012, dated 2015)
Read-outs that look alike come from different tables or passages of the source.

What was measured:
[1] = test system: Green Peach Aphid (GPA) (Myzus persicae); test: Bioassay on Green Peach Aphid (GPA), foliar spray on cabbage seedlings; format: in vivo; conditions: 72 h, Table 5: Prophetic Compounds Subsequently Exemplified, read-out: GPA Rating
Experimental: Certain molecules disclosed in this document were tested against GPA using procedures described in the following example. In the reporting of the results, the “GPA Rating Table” was used (See Table Section).
Cabbage seedlings grown in 3-inch pots, with 2-3 small (3-5 cm) true leaves, were used as test substrate. The seedlings were infested with 20-50 GPA (wingless adult and nymph stages) one day prior to chemical application. Four pots with individual seedlings were used for each treatment. Test compounds (2 mg) were dissolved in 2 mL of acetone/methanol (1:1) solvent, forming stock solutions of 1000 ppm test compound. The stock solutions were diluted 5× with 0.025% Tween 20 in H2O to obtain the solution at 200 ppm test compound. A hand-held aspirator-type sprayer was used for spraying a solution to both sides of […] leaves until runoff. Reference plants (solvent check) were sprayed with the diluent only containing 20% by volume of acetone/methanol (1:1) solvent. Treated plants were held in a holding room for three days at approximately 25° C. and ambient relative humidity (RH) prior to grading. Evaluation was conducted by counting the number of live aphids per plant under a microscope. Percent Control was measured by using Abbott's correction formula (W. S. Abbott, “A Method of Computing the Effectiveness of an Insecticide” J. Econ. Entomol. 18 (1925), pp. 265-267) as follows. Corrected % Control=100*(X−Y)/X • where • X=No. of live aphids on solvent check plants and • Y=No. of live aphids on treated plants
The results are indicated in the tables entitled “Table 3: Assay Results” and “Table 4: Assay Results Part 2” (See Table Section).

[2] = test system: Cabbage Looper (CL) (Trichoplusia ni); test: Bioassay on Cabbage Looper (CL), 128-well diet tray assay; format: in vivo; conditions: Table 5: Prophetic Compounds Subsequently Exemplified, read-out: CL Rating
Experimental: (§1) Certain molecules disclosed in this document were tested against BAW, CEW and CL using procedures described in the following examples. In the reporting of the results, the “BAW & CEW & CL Rating Table” was used (See Table Section).
Bioassays on CL (Trichoplusia ni)
Bioassays on CL were conducted using a 128-well diet tray assay. One to five second instar CL larvae were placed in each well (3 mL) of the diet tray that had been previously filled with 1 mL of artificial diet to which 50 μg/cm^2 of the test compound (dissolved in 50 μL of 90:10 acetone-water mixture) had been applied (to each of eight wells) and then allowed to dry. Trays were covered with a clear self-adhesive cover, and held at 25° C., 14:10 light-dark for five to seven days. Percent mortality was recorded for the larvae in each well; activity in the eight wells was then averaged. The results are indicated in the table entitled “Table 4: Assay Results Part 2” (See Table Section).

[3] = test system: Beet Armyworm (BAW) (Spodoptera exigua); test: Bioassay on Beet Armyworm (BAW), 128-well diet tray assay; format: in vivo; conditions: Spodoptera exigua, read-out: BAW Rating
How it was run: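 Artificial diet treated with 50 μg/cm^2 compound in 90:10 acetone-water was dried, then one to five second-instar larvae were placed per well, eight wells per compound. Trays were held at 25° C., 14:10 light-dark for five to seven days, and percent mortality averaged across wells.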

[4] = test system: Corn Earworm (CEW) (Helicoverpa zea); test: Bioassay on Corn Earworm (CEW), 128-well diet tray assay; format: in vivo; conditions: Table 3: Assay Results Part 1, read-out: CEW Rating
Experimental: as §1
Bioassays on CEW (Helicoverpa zea)
Bioassays on CEW were conducted using a 128-well diet tray assay. One to five second instar CEW larvae were placed in each well (3 mL) of the diet tray that had been previously filled with 1 mL of artificial diet to which 50 μg/cm^2 of the test compound (dissolved in 50 μL of 90:10 acetone-water mixture) had been applied (to each of eight wells) and then allowed to dry. Trays were covered with a clear self-adhesive cover, and held at 25° C., 14:10 light-dark for five to seven days. Percent mortality was recorded for the larvae in each well; activity in the eight wells was then averaged. The results are indicated in the table entitled “Table 3: Assay Results Part 1” (See Table Section).

[5] = Table 5: Prophetic Compounds Subsequently Exemplified

Row | melting point [°C] | Structure (SMILES) | pest or weed control at 200 µg/mL [1] [%] | pest or weed control at 50 µg/cm2 [2] [%] | pest or weed control at 50 µg/cm2 [3, 5] [%] | pest or weed control at 50 µg/cm2 [4] [%] | pest or weed control at 50 µg/cm2 ([3]; Table 3: Assay Results Part 1) [%]
1 | 110 to 112 | NC(=O)c1ccc(/C=C/C(c2cc(Cl)cc(Cl)c2)C(F)(F)F)cc1 (stereo not drawn) [AC2] |  |  |  |  | 
2 |  | CCNC(=O)C1(NC(=O)c2ccc(/C=C/C(c3cc(Cl)c(Cl)c(Cl)c3)C(F)(F)F)cc2C(F)(F)F)CC1 (stereo not drawn) [Compound P1025] | 0 to 80 | 50 to 100 | 50 to 100 |  | 
3 |  | O=C(NC1(C(=O)NCC(F)(F)F)CC1)c1ccc(/C=C/C(c2ccc(Cl)c([N+](=O)[O-])c2)C(F)(F)F)cc1C(F)(F)F (stereo not drawn) [Compound P470] | 0 to 80 | 50 to 100 | 50 to 100 |  | 
4 |  | Cc1cc(C(/C=C/c2ccc(C(=O)NC3(C(=O)NCC(F)(F)F)CC3)c(Br)c2)C(F)(F)F)ccc1F (stereo not drawn) [Compound P693] |  | 50 to 100 | 50 to 100 |  | 
5 |  | O=C(NC1(C(=O)NCC(F)(F)F)CC1)c1ccc(/C=C/C(c2cc(Cl)c(Cl)cc2Cl)C(F)(F)F)cc1C(F)(F)F (stereo not drawn) [Compound P110] |  | 50 to 100 | 50 to 100 |  | 
6 |  | O=C(NC1(C(=O)NCC(F)(F)F)CC1)c1ccc(/C=C/C(c2cc(Cl)cc(Br)c2)C(F)(F)F)cc1C(F)(F)F (stereo not drawn) [Compound P380] |  | 50 to 100 | 50 to 100 |  | 
7 |  | O=C(NC1(C(=O)NCC(F)F)CC1)c1ccc(/C=C/C(c2cc(Cl)c(Cl)c(Cl)c2)C(F)(F)F)cc1C(F)(F)F (stereo not drawn) [Compound P1015] |  | 50 to 100 | 50 to 100 |  | 
8 |  | Cc1cc(C(/C=C/c2ccc(C(=O)NC3(C(=O)NCC(F)(F)F)CC3)c(Br)c2)C(F)(F)F)cc(C)c1F (stereo not drawn) [Compound P333] |  | 50 to 100 | 50 to 100 |  | 
9 |  | Cc1cc(/C=C/C(c2cc(Cl)cc(Cl)c2)C(F)(F)F)ccc1C(=O)NCC(=O)NCC(F)(F)F (stereo not drawn) [AC24] |  |  |  | 50 to 100 | 50 to 100
10 |  | N#Cc1cc(C(/C=C/c2ccc(C(=O)NC3(C(=O)NCC(F)(F)F)CC3)c(C(F)(F)F)c2)C(F)(F)F)ccc1F (stereo not drawn) [Compound P515] |  | 50 to 100 | 50 to 100 |  | 
11 |  | Cc1cc(C(/C=C/c2ccc(C(=O)NC3(C(=O)NCC(F)(F)F)CC3)c(Br)c2)C(F)(F)F)ccc1Cl (stereo not drawn) [Compound P243] |  | 50 to 100 | 50 to 100 |  | 
12 |  | O=C(NC1(C(=O)NCC(F)(F)F)CC1)c1ccc(/C=C/C(c2ccc(Cl)c(Cl)c2)C(F)(F)F)cc1C(F)(F)F (stereo not drawn) [Compound P1095] |  | 50 to 100 | 50 to 100 |  | 
13 |  | O=C(NC1(C(=S)NCC(F)(F)F)CC1)c1ccc(/C=C/C(c2cc(Cl)c(Cl)c(Cl)c2)C(F)(F)F)cc1Cl (stereo not drawn) [Compound P1010] |  | 50 to 100 | 50 to 100 |  | 
14 |  | O=C(NC1(C(=O)NCC(F)(F)F)CC1)c1ccc(/C=C/C(c2cc(Cl)cc(Cl)c2)C(F)(F)F)cc1C(F)(F)F (stereo not drawn) [Compound P1050] |  | 50 to 100 | 50 to 100 |  | 
15 |  | O=C(NC1(C(=O)NCC(F)(F)F)CC1)c1ccc(/C=C/C(c2cc(Br)cc(Br)c2)C(F)(F)F)cc1Br (stereo not drawn) [Compound P1183] |  | 50 to 100 | 50 to 100 |  | 
16 |  | O=C(NC1(C(=O)NCC(F)(F)F)CC1)c1ccc(/C=C/C(c2cc(F)cc(Br)c2)C(F)(F)F)cc1Br (stereo not drawn) [Compound P198] |  | 50 to 100 | 50 to 100 |  | 
17 |  | O=C(NC1(C(=O)NCC(F)(F)F)CC1)c1ccc(/C=C/C(c2cc(Cl)cc(Cl)c2)C(F)(F)F)cc1Br (stereo not drawn) [Compound P1048] |  | 50 to 100 | 50 to 100 |  | 
18 |  | O=C(NC1(C(=O)NCC(F)(F)F)CC1)c1ccc(/C=C/C(c2cc(Cl)c(Cl)cc2Cl)C(F)(F)F)cc1Br (stereo not drawn) [Compound P108] |  | 50 to 100 | 50 to 100 |  | 
19 |  | O=C(NC1(C(=O)NCC(F)(F)F)CC1)c1ccc(/C=C/C(c2cc(Cl)cc(Br)c2)C(F)(F)F)cc1Br (stereo not drawn) [Compound P378] |  | 50 to 100 | 50 to 100 |  | 
20 |  | CCNC(=O)C1(NC(=O)c2ccc(/C=C/C(c3cc(Cl)c(Cl)c(Cl)c3)C(F)(F)F)cc2C)CC1 (stereo not drawn) [Compound P1026] | 0 to 80 | 50 to 100 | 50 to 100 |  | 
